Results published in article PMC13198257, “An aerosolized dual-action autotaxin inhibitor-PPARγ agonist for the treatment of pulmonary fibrosis” (Cell Reports Medicine, 2026).

Tested on: lung gene expression
Assay: RNA sequencing of lung tissue (BLM/EL244 vs BLM)
Format: in vivo, mouse
Conditions: BLM/EL244 vs BLM
Protocol: RNA quality was assessed using an Agilent TapeStation 4150 with the High Sensitivity […] ScreenTape (Agilent), according to the manufacturer’s protocols. For library preparation, the QuantSeq 3’mRNA-Seq Library Prep Kit (Lexogen) was used according to manufacturer’s instructions. Briefly, 500 ng of RNA from each sample was used for first-strand synthesis, followed by RNA template removal, and second-strand synthesis initiated by random primers. In-line barcodes were introduced at this step, and this was followed by magnetic bead-based purification. The resulting libraries were amplified for 15 cycles and re-purified, with quantity and quality assessed on a Qubit 4 Fluorometer with the Invitrogen Qubit dsDNA HS Assay and an Agilent Tapestation 4150 with the High Sensitivity D1000 assay kit, respectively. The quantified libraries were pooled equimolarly; 50ng of total library mix was used for Adapter Conversion PCR Amplification using the Universal Library Conversion Kit (App-A), Version: V1.0 (MGI Tech Co., Ltd.), according to the manufacturer’s instructions.
The quantity and quality of the purified adapter conversion PCR (AC-PCR) product were evaluated on a Qubit 4 Fluorometer with the Invitrogen Qubit dsDNA HS Assay and on an Agilent Tapestation 4150 with the High Sensitivity D1000 assay kit, respectively. This was followed by DNA denaturation, Single-Strand Circularisation, Enzymatic Digestion, Enzymatic Digestion Product Cleanup and Quality Control steps on 1 pmol of AC-PCR product, according to the Universal Library Conversion Kit (App-A) User Manual (Version: A3).
Finally, 60 fmol of ssCirDNA were used for DNB preparation and sequencing on a DNBSEQ-G400 platform at the BSRC Alexander Fleming Genomics Facility, using a G400 App-A FCS SE100 High-throughput Sequencing Set (MGI Tech Co., Ltd.), according to the manufacturer’s instructions.
Alignment of the FASTQ files was performed against the mouse genome build mm10 using a custom Bash script.[143] Read counting on the 3′ UTRs and differential expression analysis were conducted using the metaseqR2 bioconductor package.[144] Genes corresponding to the following biotypes were excluded: polymorphic_pseudogene, processed_transcript, pseudogene, IG_V_pseudogene, misc_RNA, IG_C_gene, IG_J_gene, IG_D_gene, IG_LV_gene, TR_V_gene, TR_V_pseudogene, TEC, and processed_pseudogene. Gene counts were normalized with DESEQ[145] through metaseqR2. Genes with more than 10 counts in at least 50% of the samples were kept for further processing. For differential expression analysis, the PANDORA algorithm[146] was used to estimate a meta p-value integrating the results from the DESEQ, DESEQ2,[147] edgeR,[148] limma,[149] NBPSeq,[150] and NOISeq[151] algorithms. All additional parameters were set to default values.
Pathway enrichment analysis was performed for the Gene Ontology Biological process (BP) and Molecular Function (MF) terms through GeneCodis 4.[152] The volcano plots, scatterplots, Venn diagrams, and dot plots were generated using the ggplot2 Bioconductor package.

[1] = lung tissue of BLM-treated mice

O=C1NC(=O)C(Cc2ccc(OCCC3CCN(C(=O)OCc4cc(Cl)cc(Cl)c4)CC3)cc2)S1 (stereo not shown) [EL244, 3,5-dichlorobenzyl 4-(2-(4-((2,4-dioxothiazolidin-5-yl)methyl)phenoxy)ethyl)piperidine-1-carboxylate]
Synm log2 nFC [1]: 0.84
Synm nFC [1]: 1.79
Tbc1d8 log2 nFC [1]: 1.01
Tbc1d8 nFC [1]: 2.01
Tbkbp1 log2 nFC [1]: 0.71
Tbkbp1 nFC [1]: 1.64
Tgfbr3 log2 nFC [1]: 0.83
Tgfbr3 nFC [1]: 1.78
Tmcc3 log2 nFC [1]: 0.74
Tmcc3 nFC [1]: 1.67
Tmem100 log2 nFC [1]: 0.82
Tmem100 nFC [1]: 1.77
Tns2 log2 nFC [1]: 0.77
Tns2 nFC [1]: 1.70
Tppp3 log2 nFC [1]: 0.77
Tppp3 nFC [1]: 1.70
Unc45b log2 nFC [1]: 0.77
Unc45b nFC [1]: 1.70
Vpreb3 log2 nFC [1]: 0.71
Vpreb3 nFC [1]: 1.63
Vwa3b log2 nFC [1]: 0.98
Vwa3b nFC [1]: 1.97
Zfp36 log2 nFC [1]: 0.94
Zfp36 nFC [1]: 1.92
Acss1 log2 nFC (lung tissue): 0.65
Acss1 nFC (lung tissue): 1.56
Actn1 log2 nFC (lung tissue): -0.60
Actn1 nFC (lung tissue): 0.66
Adam12 log2 nFC (lung tissue): -1.57
Adam12 nFC (lung tissue): 0.34
Adamts4 log2 nFC (lung tissue): -2.15
Adamts4 nFC (lung tissue): 0.23
Adamts12 log2 nFC (lung tissue): -1.47
Adamts12 nFC (lung tissue): 0.36
Adgre1 log2 nFC (lung tissue): -0.79
Adgre1 nFC (lung tissue): 0.58
Ahnak log2 nFC (lung tissue): 0.61
Ahnak nFC (lung tissue): 1.52
Akap12 log2 nFC (lung tissue): 0.65
Akap12 nFC (lung tissue): 1.57
Ankrd37 log2 nFC (lung tissue): -1.50
Ankrd37 nFC (lung tissue): 0.35
Anln log2 nFC (lung tissue): -2.01
Anln nFC (lung tissue): 0.25
Apoe log2 nFC (lung tissue): -0.84
Apoe nFC (lung tissue): 0.56
Arg1 log2 nFC (lung tissue): -2.32
Arg1 nFC (lung tissue): 0.20
Arhgef39 log2 nFC (lung tissue): -1.70
Arhgef39 nFC (lung tissue): 0.31
Aurka log2 nFC (lung tissue): -2.19
Aurka nFC (lung tissue): 0.22
Aurkb log2 nFC (lung tissue): -1.85
Aurkb nFC (lung tissue): 0.28
Bex3 log2 nFC (lung tissue): -0.75
Bex3 nFC (lung tissue): 0.59
Bhlhe40 log2 nFC (lung tissue): -0.85
Bhlhe40 nFC (lung tissue): 0.56
Birc5 log2 nFC (lung tissue): -2.03
Birc5 nFC (lung tissue): 0.25
Bmpr2 log2 nFC (lung tissue): 0.60
Bmpr2 nFC (lung tissue): 1.52
Brca2 log2 nFC (lung tissue): -1.64
Brca2 nFC (lung tissue): 0.32
Brinp1 log2 nFC (lung tissue): -1.85
Brinp1 nFC (lung tissue): 0.28
C1qa log2 nFC (lung tissue): -1.44
C1qa nFC (lung tissue): 0.37
C1qb log2 nFC (lung tissue): -1.51
C1qb nFC (lung tissue): 0.35
C1qc log2 nFC (lung tissue): -1.56
C1qc nFC (lung tissue): 0.34
C3ar1 log2 nFC (lung tissue): -1.58
C3ar1 nFC (lung tissue): 0.33
Capg log2 nFC (lung tissue): -0.82
Capg nFC (lung tissue): 0.57
Casp3 log2 nFC (lung tissue): -0.85
Casp3 nFC (lung tissue): 0.56
Ccdc80 log2 nFC (lung tissue): -1.64
Ccdc80 nFC (lung tissue): 0.32
Ccl2 log2 nFC (lung tissue): -1.43
Ccl2 nFC (lung tissue): 0.37
Ccl7 log2 nFC (lung tissue): -1.75
Ccl7 nFC (lung tissue): 0.30
Ccl8 log2 nFC (lung tissue): -1.54
Ccl8 nFC (lung tissue): 0.34
Ccl12 log2 nFC (lung tissue): -2.27
Ccl12 nFC (lung tissue): 0.21
Ccn4 log2 nFC (lung tissue): -2.20
Ccn4 nFC (lung tissue): 0.22
Ccna2 log2 nFC (lung tissue): -2.26
Ccna2 nFC (lung tissue): 0.21
Ccnb1 log2 nFC (lung tissue): -2.41
Ccnb1 nFC (lung tissue): 0.19
Ccnb2 log2 nFC (lung tissue): -1.68
Ccnb2 nFC (lung tissue): 0.31
Ccne1 log2 nFC (lung tissue): -2.04
Ccne1 nFC (lung tissue): 0.24
Ccnf log2 nFC (lung tissue): -2.02
Ccnf nFC (lung tissue): 0.25
Ccr5 log2 nFC (lung tissue): -1.76
Ccr5 nFC (lung tissue): 0.30
Cd63 log2 nFC (lung tissue): -0.76
Cd63 nFC (lung tissue): 0.59
Cd276 log2 nFC (lung tissue): -1.70
Cd276 nFC (lung tissue): 0.31
Cdc20 log2 nFC (lung tissue): -1.58
Cdc20 nFC (lung tissue): 0.34
Cdca3 log2 nFC (lung tissue): -1.83
Cdca3 nFC (lung tissue): 0.28
Cdca8 log2 nFC (lung tissue): -2.32
Cdca8 nFC (lung tissue): 0.20
Cdk1 log2 nFC (lung tissue): -1.99
Cdk1 nFC (lung tissue): 0.25
Cdk19 log2 nFC (lung tissue): -0.64
Cdk19 nFC (lung tissue): 0.64
Cdkn3 log2 nFC (lung tissue): -1.68
Cdkn3 nFC (lung tissue): 0.31
Cenpe log2 nFC (lung tissue): -1.70
Cenpe nFC (lung tissue): 0.31
Cenpf log2 nFC (lung tissue): -2.20
Cenpf nFC (lung tissue): 0.22
Cenph log2 nFC (lung tissue): -2.04
Cenph nFC (lung tissue): 0.24
Cenpk log2 nFC (lung tissue): -1.51
Cenpk nFC (lung tissue): 0.35
Cenpn log2 nFC (lung tissue): -1.74
Cenpn nFC (lung tissue): 0.30
Cenps log2 nFC (lung tissue): -1.80
Cenps nFC (lung tissue): 0.29
Cfp log2 nFC (lung tissue): -0.83
Cfp nFC (lung tissue): 0.56
Chl1 log2 nFC (lung tissue): -3.49
Chl1 nFC (lung tissue): 0.09
Chsy3 log2 nFC (lung tissue): -1.56
Chsy3 nFC (lung tissue): 0.34
Ckap2l log2 nFC (lung tissue): -2.06
Ckap2l nFC (lung tissue): 0.24
Ckap2 log2 nFC (lung tissue): -2.44
Ckap2 nFC (lung tissue): 0.18
Ckap4 log2 nFC (lung tissue): -0.63
Ckap4 nFC (lung tissue): 0.65
Ckb log2 nFC (lung tissue): -0.61
Ckb nFC (lung tissue): 0.65
Cks1b log2 nFC (lung tissue): -1.54
Cks1b nFC (lung tissue): 0.34
Clca3a1 log2 nFC (lung tissue): -2.06
Clca3a1 nFC (lung tissue): 0.24
Cldn4 log2 nFC (lung tissue): -1.99
Cldn4 nFC (lung tissue): 0.25
Clmp log2 nFC (lung tissue): -0.78
Clmp nFC (lung tissue): 0.58
Clspn log2 nFC (lung tissue): -1.79
Clspn nFC (lung tissue): 0.29
Clu log2 nFC (lung tissue): -0.81
Clu nFC (lung tissue): 0.57
Cmtm3 log2 nFC (lung tissue): -0.60
Cmtm3 nFC (lung tissue): 0.66
Col1a1 log2 nFC (lung tissue): -2.02
Col1a1 nFC (lung tissue): 0.25
Col3a1 log2 nFC (lung tissue): -1.54
Col3a1 nFC (lung tissue): 0.34
Col4a1 log2 nFC (lung tissue): -0.75
Col4a1 nFC (lung tissue): 0.59
Col4a2 log2 nFC (lung tissue): -0.64
Col4a2 nFC (lung tissue): 0.64
Col5a1 log2 nFC (lung tissue): -1.52
Col5a1 nFC (lung tissue): 0.35
Col5a2 log2 nFC (lung tissue): -1.48
Col5a2 nFC (lung tissue): 0.36
Col5a3 log2 nFC (lung tissue): -1.53
Col5a3 nFC (lung tissue): 0.35
Col6a2 log2 nFC (lung tissue): -0.67
Col6a2 nFC (lung tissue): 0.63
Col6a3 log2 nFC (lung tissue): -0.77
Col6a3 nFC (lung tissue): 0.59
Cped1 log2 nFC (lung tissue): 0.63
Cped1 nFC (lung tissue): 1.55
Cthrc1 log2 nFC (lung tissue): -2.00
Cthrc1 nFC (lung tissue): 0.25
Ctnnbip1 log2 nFC (lung tissue): -0.62
Ctnnbip1 nFC (lung tissue): 0.65
Ctsb log2 nFC (lung tissue): -0.75
Ctsb nFC (lung tissue): 0.59
Ctsh log2 nFC (lung tissue): -0.63
Ctsh nFC (lung tissue): 0.64
Cxcl9 log2 nFC (lung tissue): -1.62
Cxcl9 nFC (lung tissue): 0.32
Cxcl10 log2 nFC (lung tissue): -1.90
Cxcl10 nFC (lung tissue): 0.27
Cxcl12 log2 nFC (lung tissue): -0.67
Cxcl12 nFC (lung tissue): 0.63
Cxcl13 log2 nFC (lung tissue): -1.42
Cxcl13 nFC (lung tissue): 0.37
Cyth4 log2 nFC (lung tissue): -0.71
Cyth4 nFC (lung tissue): 0.61
Cytip log2 nFC (lung tissue): 0.63
Cytip nFC (lung tissue): 1.54
Ddr1 log2 nFC (lung tissue): -0.66
Ddr1 nFC (lung tissue): 0.63
Dnmt1 log2 nFC (lung tissue): -0.84
Dnmt1 nFC (lung tissue): 0.56
Dtl log2 nFC (lung tissue): -1.94
Dtl nFC (lung tissue): 0.26
Dtx4 log2 nFC (lung tissue): -0.70
Dtx4 nFC (lung tissue): 0.61
E2f8 log2 nFC (lung tissue): -1.57
E2f8 nFC (lung tissue): 0.34
Ect2 log2 nFC (lung tissue): -1.89
Ect2 nFC (lung tissue): 0.27
Efnb2 log2 nFC (lung tissue): 0.61
Efnb2 nFC (lung tissue): 1.53
Eln log2 nFC (lung tissue): -2.07
Eln nFC (lung tissue): 0.24
Emid1 log2 nFC (lung tissue): -0.78
Emid1 nFC (lung tissue): 0.58
Emilin1 log2 nFC (lung tissue): -0.84
Emilin1 nFC (lung tissue): 0.56
Emp1 log2 nFC (lung tissue): -0.70
Emp1 nFC (lung tissue): 0.62
Enc1 log2 nFC (lung tissue): -0.80
Enc1 nFC (lung tissue): 0.57
Epas1 log2 nFC (lung tissue): 0.67
Epas1 nFC (lung tissue): 1.59
Epb41 log2 nFC (lung tissue): 0.61
Epb41 nFC (lung tissue): 1.52
Espl1 log2 nFC (lung tissue): -1.71
Espl1 nFC (lung tissue): 0.31
Evi2a log2 nFC (lung tissue): -0.82
